Source: PMC11722014, “FXR Activation Accelerates Early Phase of Osteoblast Differentiation Through COX-2-PGE2-EP4 Axis in BMP-2-Induced Mouse Mesenchymal Stem Cells” (Molecules, 2024)

Molecular target: T1, Farnesoid X receptor (FXR) (Homo sapiens, UniProt Q96RI1)
T1 construct: gene NR1H4; FXR-LBD-Glutathione S-transferase fusion protein
T1 sequence (Q96RI1 262-486 limits assumed): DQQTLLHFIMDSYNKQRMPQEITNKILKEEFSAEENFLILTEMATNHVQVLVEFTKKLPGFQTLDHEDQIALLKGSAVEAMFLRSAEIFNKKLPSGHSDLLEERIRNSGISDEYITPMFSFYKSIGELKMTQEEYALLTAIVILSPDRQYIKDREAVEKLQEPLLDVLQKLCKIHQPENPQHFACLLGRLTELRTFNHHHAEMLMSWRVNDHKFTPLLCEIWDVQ
Assay: LanthaScreen TR-FRET FXR coactivator recruitment assay (partial agonist, […] of GW4064); also luciferase reporter assay
Assay type: binding

EC50: 630 ± 260 nM
SMILES: CC(C)(C)c1ccc(-n2c(C3CC3)nc3c(NC(=O)c4ccc(C(=O)O)cc4)cccc32)cc1 [FLG390]
